In article PMC3312352, “Peptides of the Constant Region of Antibodies Display Fungicidal Activity” (PLoS ONE, 2012):
Like-named read-outs stand apart in the source and are kept apart here. Ends that are not written are not given here. Peptide text beside a SMILES is read from it.

Columns and labels:
[1] = system: C. albicans SC5314; conditions: SC5314, 6 h
Description: (§1) Selected Fc-peptides, or their asds, were preliminarily tested at the concentration of 100 µg/ml. […] Conventional colony forming unit (CFU) assays were performed as previously described [2]. Briefly, yeast cells from a fresh (20 h at 30°C) actively growing colony on Sabouraud Dextrose agar (SDA) (C. albicans, C. glabrata, C. neoformans) or on SDA supplemented with 1% Tween 20 (M. furfur) were suspended in 199 medium. Initial germination was induced in C. albicans cells by incubation for 1 h at 37°C with shaking. Suspensions were properly diluted to obtain approximately 500 fungal cells in 100 µl of distilled water in the presence or absence (control growth) of the synthetic Fc-peptide to be tested. Cell suspensions were incubated at 37°C for 6 h, then plated on SDA or SDA-Tween. CFU were enumerated after 48–72 h of incubation at 30°C, and peptide fungicidal activity was determined as percentage of CFU inhibition, according to the formula 100-(CFU Fc-peptide treated/CFU control growth)×100. Each assay was carried out in triplicate for statistical purposes.
(§2) EC50 was calculated by nonlinear regression analysis using Graph Pad Prism 4.01 software, San Diego, CA, USA.

[2] = system: C. albicans SC5314; assay: CFU assay, in vitro fungicidal activity; conditions: for EC50 asd/EC50 T11F / EC50 asd/EC50 N10K: ratio of EC50 values against C. albicans SC5314; for EC50: read-out: EC50 (95% confidence intervals), scalar dilutions, 6 h at 37°C in distilled water, nonlinear regression; for EC50 / % inhibitory activity at 100 µg/ml in comparison to the control growth (water): CFU assay, C. albicans SC5314, triplicate; for % inhibitory activity at 100 µg/ml in comparison to the control growth (water): peptide 100 µg/ml, ~500 cells in 100 µl distilled water, 6 h at 37°C
Description: as §1, §2

[3] = system: C. albicans AIDS68; assay: Experimental vaginal candidiasis in mice; assay type: in vivo, Candida albicans; conditions: mice infected with C. albicans AIDS68; 100 µg in PBS at 1, 24, 48 h after challenge
[4] = system: C. albicans CA-6; conditions: CA-6, 6 h
Description: as §1, §2

[5] = system: C. albicans SA40; conditions: SA40, 6 h
Description: as §1, §2

[6] = system: C. albicans AIDS68; conditions: AIDS68, 6 h
Description: as §1, §2

[7] = system: C. albicans UM4; conditions: UM4, 6 h
Description: as §1, §2

[8] = system: C. glabrata OMNI32; conditions: OMNI32, 6 h
Description: as §1, §2

[9] = system: C. neoformans 6995; conditions: 6995, 6 h
Description: as §1, §2

[10] = system: M. furfur 101; conditions: 6 h
Description: as §1, §2

TCRVDHRALTF [Peptide G8A]
% inhibitory activity at 100 µg/ml in comparison to the control growth (water) [1]: 100%
EC50 asd/EC50 T11F [2]: 1.01
EC50 [2]: 1550 nM

TCRVDHRGLAF [Peptide T10A]
% inhibitory activity at 100 µg/ml in comparison to the control growth (water) [1]: 100%
EC50 asd/EC50 T11F [2]: 0.55
EC50 [2]: 850 nM

NQVSLTALVK [Peptide C7A]
EC50 [1]: 54900 nM
% inhibitory activity at 100 µg/ml in comparison to the control growth (water) [1]: 73.41%
EC50 asd/EC50 N10K [2]: 54.66

OC(Cn1cncn1)(Cn1cncn1)c1ccc(F)cc1F [fluconazole]
response of vaginal infection to treatment [3]: resistant to treatment

TCRVAHRGLTF [Peptide D5A]
% inhibitory activity at 100 µg/ml in comparison to the control growth (water) [1]: 100%
EC50 asd/EC50 T11F [2]: 0.26
EC50 [2]: 395 nM

TCRVDHRGATF [Peptide L9A]
% inhibitory activity at 100 µg/ml in comparison to the control growth (water) [1]: 100%
EC50 asd/EC50 T11F [2]: 1.14
EC50 [2]: 1750 nM

NQVSLTCLAK [Peptide V9A]
EC50 [1]: 1780 nM
% inhibitory activity at 100 µg/ml in comparison to the control growth (water) [1]: 100%
EC50 asd/EC50 N10K [2]: 1.77

NAVSLTCLVK [Peptide Q2A]
EC50 [1]: 2300 nM
% inhibitory activity at 100 µg/ml in comparison to the control growth (water) [1]: 100%
EC50 asd/EC50 N10K [2]: 2.30

TCRADHRGLTF [Peptide V4A]
% inhibitory activity at 100 µg/ml in comparison to the control growth (water) [1]: 100%
EC50 asd/EC50 T11F [2]: 0.74
EC50 [2]: 1130 nM

NQVSATCLVK [Peptide L5A]
EC50 [1]: 885 nM
% inhibitory activity at 100 µg/ml in comparison to the control growth (water) [1]: 100%
EC50 asd/EC50 N10K [2]: 0.88

NQVSLTCAVK [Peptide L8A]
EC50 [1]: 744 nM
% inhibitory activity at 100 µg/ml in comparison to the control growth (water) [2]: 100%
EC50 asd/EC50 N10K [2]: 0.74

ACRVDHRGLTF [Peptide T1A]
% inhibitory activity at 100 µg/ml in comparison to the control growth (water) [1]: 100%
EC50 asd/EC50 T11F [2]: 0.48
EC50 [2]: 738 nM

TCAVDHRGLTF [Peptide R3A]
% inhibitory activity at 100 µg/ml in comparison to the control growth (water) [1]: 97.61%
EC50 asd/EC50 T11F [2]: 8.74
EC50 [2]: 13500 nM

TCRVDARGLTF [Peptide H6A]
% inhibitory activity at 100 µg/ml in comparison to the control growth (water) [1]: 100%
EC50 asd/EC50 T11F [2]: 6.76
EC50 [2]: 10400 nM

NQVSLTCLVK [Peptide N10K]
% inhibitory activity at 100 µg/ml in comparison to the control growth (water) [1]: 100%
% inhibitory activity at 100 µg/ml in comparison to the control growth (water) [4]: 100%
% inhibitory activity at 100 µg/ml in comparison to the control growth (water) [5]: 100%
% inhibitory activity at 100 µg/ml in comparison to the control growth (water) [6]: 100%
% inhibitory activity at 100 µg/ml in comparison to the control growth (water) [7]: 100%
% inhibitory activity at 100 µg/ml in comparison to the control growth (water) [8]: 100%
% inhibitory activity at 100 µg/ml in comparison to the control growth (water) [9]: 100%
% inhibitory activity at 100 µg/ml in comparison to the control growth (water) [10]: 100%

AQVSLTCLVK [Peptide N1A]
EC50 [1]: 587 nM
% inhibitory activity at 100 µg/ml in comparison to the control growth (water) [1]: 100%
EC50 asd/EC50 N10K [2]: 0.58

NQVSLACLVK [Peptide T6A]
EC50 [1]: 4880 nM
% inhibitory activity at 100 µg/ml in comparison to the control growth (water) [1]: 100%
EC50 asd/EC50 N10K [2]: 4.86

TCRVDHAGLTF [Peptide R7A]
% inhibitory activity at 100 µg/ml in comparison to the control growth (water) [1]: 100%
EC50 asd/EC50 T11F [2]: 7.83
EC50 [2]: 12100 nM

TCRVDHRGLTA [Peptide F11A]
% inhibitory activity at 100 µg/ml in comparison to the control growth (water) [1]: 100%
EC50 asd/EC50 T11F [2]: 1.64
EC50 [2]: 2520 nM

NQVSLTCLVA [Peptide K10A]
% inhibitory activity at 100 µg/ml in comparison to the control growth (water) [1]: 0%

TCRVDHRGLTF [Peptide T11F]
% inhibitory activity at 100 µg/ml in comparison to the control growth (water) [1]: 100%
% inhibitory activity at 100 µg/ml in comparison to the control growth (water) [4]: 100%
% inhibitory activity at 100 µg/ml in comparison to the control growth (water) [5]: 100%
% inhibitory activity at 100 µg/ml in comparison to the control growth (water) [6]: 100%
% inhibitory activity at 100 µg/ml in comparison to the control growth (water) [7]: 100%
% inhibitory activity at 100 µg/ml in comparison to the control growth (water) [8]: 100%
% inhibitory activity at 100 µg/ml in comparison to the control growth (water) [9]: 100%
% inhibitory activity at 100 µg/ml in comparison to the control growth (water) [10]: 100%

NQASLTCLVK [Peptide V3A]
EC50 [1]: 5930 nM
% inhibitory activity at 100 µg/ml in comparison to the control growth (water) [2]: 100%
EC50 asd/EC50 N10K [2]: 5.91

TARVDHRGLTF [Peptide C2A]
% inhibitory activity at 100 µg/ml in comparison to the control growth (water) [1]: 79.32%
EC50 asd/EC50 T11F [2]: 21.12
EC50 [2]: 32500 nM

NQVALTCLVK [Peptide S4A]
EC50 [1]: 2390 nM
% inhibitory activity at 100 µg/ml in comparison to the control growth (water) [1]: 100%
EC50 asd/EC50 N10K [2]: 2.38

CC(C)C[C@H](NC(=O)[C@H](C)NC(=O)[C@H](CCC(=O)O)NC(=O)[C@@H](N)Cc1c[nH]cn1)C(=O)O [Peptide H4L] (H-HEAL-OH; N-terminus and C-terminus assumed)
% inhibitory activity at 100 µg/ml in comparison to the control growth (water) [1]: 84.34%
% inhibitory activity at 100 µg/ml in comparison to the control growth (water) [4]: 57.04%
% inhibitory activity at 100 µg/ml in comparison to the control growth (water) [5]: 55.99%
% inhibitory activity at 100 µg/ml in comparison to the control growth (water) [6]: 59.82%
% inhibitory activity at 100 µg/ml in comparison to the control growth (water) [7]: 64.63%
% inhibitory activity at 100 µg/ml in comparison to the control growth (water) [8]: 80.49%
% inhibitory activity at 100 µg/ml in comparison to the control growth (water) [9]: 85.08%
% inhibitory activity at 100 µg/ml in comparison to the control growth (water) [10]: 92.04%
